The text below walks through data of US20080114007A1 (priority 2006, published 2008).

SMILES strings stand for the structures.

The target of this assay is CSF-1R (Homo sapiens, UniProt P07333). The assay is described as follows: Peptide (non-phosphorylated) assay, fluorescence polarization competition immunoassay. It counts as biochemical. Particulars: 0.7 nM CSF-1R, 308 μM SYEGNSYTFIDPTQ peptide, 1 mM ATP, 80 min; mean of at least three determinations; read-out: c-fms Peptide IC50. The method in brief: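 Human CSF-1R kinase reaction started with ATP and run 80 min at room temperature, then stopped with EDTA. Phosphopeptide detected by fluorescence polarization competition using anti-phosphotyrosine antibody and PTK green tracer after 30 min. Controls used 4% DMSO, with EDTA added before reaction start for positive controls.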
Sequence of CSF-1R (P07333 20-972): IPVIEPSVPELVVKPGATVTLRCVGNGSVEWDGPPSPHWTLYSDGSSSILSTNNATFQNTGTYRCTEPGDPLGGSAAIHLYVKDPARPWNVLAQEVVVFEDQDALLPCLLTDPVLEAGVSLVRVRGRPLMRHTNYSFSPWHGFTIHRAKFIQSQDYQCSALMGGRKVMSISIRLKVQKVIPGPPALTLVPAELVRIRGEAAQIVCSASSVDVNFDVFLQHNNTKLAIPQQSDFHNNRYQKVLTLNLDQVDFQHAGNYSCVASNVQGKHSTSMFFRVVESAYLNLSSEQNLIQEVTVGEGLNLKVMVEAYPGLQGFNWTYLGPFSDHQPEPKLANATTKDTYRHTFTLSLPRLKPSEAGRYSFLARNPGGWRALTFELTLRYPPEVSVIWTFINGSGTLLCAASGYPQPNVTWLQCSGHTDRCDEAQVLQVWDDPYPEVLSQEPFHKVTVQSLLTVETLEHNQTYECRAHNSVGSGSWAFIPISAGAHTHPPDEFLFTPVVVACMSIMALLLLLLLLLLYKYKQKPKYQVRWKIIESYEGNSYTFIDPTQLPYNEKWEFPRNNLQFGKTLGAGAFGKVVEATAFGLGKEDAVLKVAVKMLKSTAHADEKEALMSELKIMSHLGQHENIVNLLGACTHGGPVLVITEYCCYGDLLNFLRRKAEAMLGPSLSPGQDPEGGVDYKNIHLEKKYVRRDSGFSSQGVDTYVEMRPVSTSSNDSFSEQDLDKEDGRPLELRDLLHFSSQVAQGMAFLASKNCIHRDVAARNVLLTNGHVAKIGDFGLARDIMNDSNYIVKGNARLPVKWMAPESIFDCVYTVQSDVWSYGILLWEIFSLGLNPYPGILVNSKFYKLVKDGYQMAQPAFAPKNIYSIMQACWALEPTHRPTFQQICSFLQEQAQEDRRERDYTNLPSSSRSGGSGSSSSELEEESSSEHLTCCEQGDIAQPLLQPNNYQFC
Turning to `CCc1ccc(-n2cc(C(=O)NOC)c(=O)c3cnc(Nc4ccc(CCN5CCCC5=O)cc4)nc32)cc1` [Cpd 54, 8-(4-ethyl-phenyl)-5-oxo-2-{4-[2-(2-oxo-pyrrolidin-1-yl)-ethyl]-phenylamino}-5,8-dihydro-pyrido[2,3-d]pyrimidine-6-carboxylic acid methoxy-amide], the IC50 was 1.8 nM.
Regarding `CONC(=O)c1cn(C2CCCCC2)c2nc(Nc3ccc(CCN4CCN(C)CC4)cc3)ncc2c1=O` [Cpd 18, 8-cyclohexyl-2-{4-[2-(4-methyl-piperazin-1-yl)-ethyl]-phenylamino}-5-oxo-5,8-dihydro-pyrido[2,3-d]pyrimidine-6-carboxylic acid methoxy-amide], the 50% inhibitory concentration (IC50) stood at 0.3 nM.
As for `CONC(=O)c1cn(-c2ccc3c(c2)CCC3)c2nc(Nc3ccc(C4CCN(S(N)(=O)=O)CC4)cc3)ncc2c1=O` [Cpd 178, 8-indan-5-yl-5-oxo-2-[4-(1-sulfamoyl-piperidin-4-yl)-phenylamino]-5,8-dihydro-pyrido[2,3-d]pyrimidine-6-carboxylic acid methoxy-amide], the IC50 was found to be 2.6 nM.
As for `CONC(=O)c1cn(-c2ccc(F)c(Cl)c2)c2nc(Nc3ccc(CCN4CCN(C)CC4)cc3)ncc2c1=O` [Cpd 4, 8-(3-chloro-4-fluoro-phenyl)-2-{4-[2-(4-methyl-piperazin-1-yl)-ethyl]-phenylamino}-5-oxo-5,8-dihydro-pyrido[2,3-d]pyrimidine-6-carboxylic acid methoxy amide], the IC50 is 2.2 nM.
`CONC(=O)c1cn(-c2ccc3c(c2)CCC3)c2nc(Nc3ccc(CCN4CCN(C(C)=O)CC4)cc3)ncc2c1=O` [Cpd 145, 2-{4-[2-(4-acetyl-piperazin-1-yl)-ethyl]-phenylamino}-8-indan-5-yl-5-oxo-5,8-dihydro-pyrido[2,3-d]pyrimidine-6-carboxylic acid methoxy-amide]: the IC50 is 1.2 nM.
As to `CCc1ccc(-n2cc(C(=O)NOC(C)C)c(=O)c3cnc(Nc4ccc(C5CCN(CCO)CC5)cc4)nc32)cc1` [Cpd 184, 8-(4-ethyl-phenyl)-2-{4-[1-(2-hydroxy-ethyl)-piperidin-4-yl]-phenylamino}-5-oxo-5,8-dihydro-pyrido[2,3-d]pyrimidine-6-carboxylic acid isopropoxy-amide], the IC50 was found to be 0.9 nM.
As for `CONC(=O)c1cn(-c2ccc3c(c2)CCC3)c2nc(Nc3ccc(CCS(C)(=O)=O)cc3)ncc2c1=O` [Cpd 71, 8-indan-5-yl-2-[4-(2-methanesulfonyl-ethyl)-phenylamino]-5-oxo-5,8-dihydro-pyrido[2,3-d]pyrimidine-6-carboxylic acid methoxy-amide], the IC50 turned out to be 0.64 nM.
Take `CONC(=O)c1cn(-c2ccc3c(c2)CCC3)c2nc(Nc3ccc(CN4CCN(C)CC4)cc3)ncc2c1=O` [Cpd 128, 8-indan-5-yl-2-[4-(4-methyl-piperazin-1-ylmethyl)-phenylamino]-5-oxo-5,8-dihydro-pyrido[2,3-d]pyrimidine-6-carboxylic acid methoxy-amide]: the IC50 was 1.1 nM.
The result for `CCc1ccc(-n2cc(C(=O)NOC)c(=O)c3cnc(Nc4ccc([C@]5(O)CCN(C)C[C@H]5O)cc4)nc32)cc1` [Cpd 249, 2-{4-[(3R,4R)-(3,4-dihydroxy-1-methyl-piperidin-4-yl)]-phenylamino}-8-(4-ethyl-phenyl)-5-oxo-5,8-dihydro-pyrido[2,3-d]pyrimidine-6-carboxylic acid methoxy-amide] reads 0.55 nM; that for `CONC(=O)c1cn(-c2ccc3c(c2)CCC3)c2nc(Nc3ccc(OC4CCN(C)CC4)cc3)ncc2c1=O` [Cpd 313, 8-indan-5-yl-2-[4-(1-methyl-piperidin-4-yloxy)-phenylamino]-5-oxo-5,8-dihydro-pyrido[2,3-d]pyrimidine-6-carboxylic acid methoxy-amide], 0.3 nM.
On to `CCc1ccc(-n2cc(C(=O)NOC(C)C)c(=O)c3cnc(Nc4ccc(C5CCN(S(C)(=O)=O)CC5)cc4)nc32)cc1` [Cpd 60, 8-(4-ethyl-phenyl)-2-[4-(1-methanesulfonyl-piperidin-4-yl)-phenylamino]-5-oxo-5,8-dihydro-pyrido[2,3-d]pyrimidine-6-carboxylic acid isopropoxy-amide], for which the IC50 came out at 7 nM.
For `CONC(=O)c1cn(-c2ccc3c(c2)CCC3)c2nc(Nc3cccc(N4CCN(C(C)=O)CC4)c3)ncc2c1=O` [Cpd 196, 2-[3-(4-acetyl-piperazin-1-yl)-phenylamino]-8-indan-5-yl-5-oxo-5,8-dihydro pyrido[2,3-d]pyrimidine-6-carboxylic acid methoxy-amide], the IC50 came out at 1.7 nM.
For the compound `CCONC(=O)c1cn(C2CCCC2)c2nc(Nc3ccc(C4CCN(C(C)=O)CC4)cc3)ncc2c1=O` [Cpd 47, 2-[4-(1-acetyl-piperidin-4-yl)-phenylamino]-8-cyclopentyl-5-oxo-5,8-dihydro-pyrido[2,3-d]pyrimidine-6-carboxylic acid ethoxy-amide], the IC50 amounted to 1.9 nM.
As for `CONC(=O)c1cn(C2CCCCC2)c2nc(Nc3ccc(C4CCN(C(C)=O)CC4)cc3)ncc2c1=O` [Cpd 28, 2-[4-(1-acetyl-piperidin-4-yl)-phenylamino]-8-cyclohexyl-5-oxo-5,8-dihydro-pyrido[2,3-d]pyrimidine-6-carboxylic acid methoxy-amide], the IC50 stood at 2.2 nM.
Consider `CCc1ccc(-n2cc(C(=O)NOC)c(=O)c3cnc(Nc4ccc(C5CCN(CCS(C)(=O)=O)CC5)cc4)nc32)cc1` [Cpd 96, 8-(4-ethyl-phenyl)-2-{4-[1-(2-methanesulfonyl-ethyl)-piperidin-4-yl]-phenylamino}-5-oxo-5,8-dihydro-pyrido[2,3-d]pyrimidine-6-carboxylic acid methoxy-amide], for which the IC50 turned out to be 0.9 nM.
For `CONC(=O)c1cn(-c2ccc3ccccc3c2)c2nc(Nc3ccc(C4CCN(C)CC4)cc3)ncc2c1=O` [Cpd 303, 2-[4-(1-methyl-piperidin-4-yl)-phenylamino]-8-naphthalen-2-yl-5-oxo-5,8-dihydro-pyrido[2,3-d]pyrimidine-6-carboxylic acid methoxy-amide] the value was 1 nM; for `CCc1ccc(-n2cc(C(=O)NOC)c(=O)c3cnc(Nc4ccc(OC5CCNCC5)cc4)nc32)cc1` [Cpd 307, 8-(4-ethyl-phenyl)-5-oxo-2-[4-(piperidin-4-yloxy)-phenylamino]-5,8-dihydro-pyrido[2,3-d]pyrimidine-6-carboxylic acid methoxy-amide], 0.4 nM; for `CONC(=O)c1cn(-c2ccc3c(c2)CCC3)c2nc(Nc3cccc(C4(O)CCN(C)CC4)c3)ncc2c1=O` [Cpd 272, 2-[3-(4-hydroxy-1-methyl-piperidin-4-yl)-phenylamino]-8-indan-5-yl-5-oxo-5,8-dihydro-pyrido[2,3-d]pyrimidine-6-carboxylic acid methoxy-amide], 0.88 nM.
For `CONC(=O)c1cn(-c2ccc3c(c2)CCC3)c2nc(Nc3cccc(NC(=O)CN(C)C)c3)ncc2c1=O` [Cpd 229, 2-[3-(2-dimethylamino-acetylamino)-phenylamino]-8-indan-5-yl-5-oxo-5,8-dihydro-pyrido[2,3-d]pyrimidine-6-carboxylic acid methoxy-amide], the IC50 worked out at 0.42 nM.
Turning to `CONC(=O)c1cn(C2CCCCC2)c2nc(Nc3ccc(N4CC(C)NC(C)C4)cc3)ncc2c1=O` (stereo not drawn) [Cpd 24, 8-cyclohexyl-2-[4-(3,5-dimethyl-piperazin-1-yl)-phenylamino]-5-oxo-5,8-dihydro-pyrido[2,3-d]pyrimidine-6-carboxylic acid methoxy-amide], the IC50 came out at 1.8 nM.
As to `CCONC(=O)c1cn(C2CCCC2)c2nc(Nc3ccc(CCN4CCN(C)CC4)cc3)ncc2c1=O` [Cpd 49, 8-cyclopentyl-2-{4-[2-(4-methyl-piperazin-1-yl)-ethyl]-phenylamino}-5-oxo-5,8-dihydro-pyrido[2,3-d]pyrimidine-6-carboxylic acid ethoxy-amide], the IC50 worked out at 1.7 nM.
For the compound `CCN1CCCCC1c1ccc(Nc2ncc3c(=O)c(C(=O)NOC)cn(-c4ccc5c(c4)CCC5)c3n2)cc1` (stereo not drawn) [Cpd 244, 2-[4-(1-ethyl-piperidin-2-yl)-phenylamino]-8-indan-5-yl-5-oxo-5,8-dihydro-pyrido[2,3-d]pyrimidine-6-carboxylic acid methoxy-amide], the IC50 was determined as 0.64 nM.
As to `CONC(=O)c1cn(C2CCCCC2)c2nc(Nc3ccc(CN4CCCC4=O)cc3)ncc2c1=O` [Cpd 12, 8-cyclohexyl-5-oxo-2-[4-(2-oxo-pyrrolidin-1-ylmethyl)-phenylamino]-5,8-dihydro-pyrido[2,3-d]pyrimidine-6-carboxylic acid methoxy-amide], the IC50 is 1.3 nM.
For `CONC(=O)c1cn(-c2ccc3c(c2)CCC3)c2nc(Nc3ccc(CCN4CCS(=O)(=O)CC4)cc3)ncc2c1=O` [Cpd 206, 2-{4-[2-(1,1-dioxo-1λ^6-thiomorpholin-4-yl)-ethyl]-phenylamino}-8-indan-5-yl-5-oxo-5,8-dihydro-pyrido[2,3-d]pyrimidine-6-carboxylic acid methoxy-amide] the value was 1.2 nM.
`CC(=O)N1CCC(c2ccc(Nc3ncc4c(=O)c(C(N)=O)cn(-c5ccc6c(c5)CCC6)c4n3)cc2)CC1` [Cpd 126, 2-[4-(1-acetyl-piperidin-4-yl)-phenylamino]-8-indan-5-yl-5-oxo-5,8-dihydro-pyrido[2,3-d]pyrimidine-6-carboxylic acid amide]: the IC50 is 1.8 nM.
Take `CONC(=O)c1cn(-c2cnc3c(c2)CCC3)c2nc(Nc3ccc(C4CCN(C)CC4)cc3)ncc2c1=O` [Cpd 225, 8-(6,7-dihydro-5H-[1]pyrindin-3-yl)-2-[4-(1-methyl-piperidin-4-yl)-phenylamino]-5-oxo-5,8-dihydro-pyrido[2,3-d]pyrimidine-6-carboxylic acid methoxy-amide]: the IC50 stood at 7 nM.
`CCc1ccc(-n2cc(C(=O)NOC)c(=O)c3cnc(Nc4ccc(OC5CCN(C)CC5)cc4)nc32)cc1` [Cpd 309, 8-(4-ethyl-phenyl)-2-[4-(1-methyl-piperidin-4-yloxy)-phenylamino]-5-oxo-5,8-dihydro-pyrido[2,3-d]pyrimidine-6-carboxylic acid methoxy-amide]: the IC50 amounted to 0.3 nM.

Broadly, the IC50 is the concentration that inhibits the measured activity by half.
